The record followed here is US6782895B2, “Compositions comprising at least one hydroxide compound and at least one complexing agent, and methods for using the same” (L'Oreal, S.A., priority 2001, dated 2004).

Counter-ions that a name gives are not always drawn. Like-named read-outs stand apart in the source and are kept apart here.

For series [1] the following is noted: for Appearance / pH: 3 g VERSENE 220 in 97 g water. As for the experimental part:
The present invention also provides for a simple screening test, which may be used to determine the applicability of a complexing agent for use as the at least one complexing agent in the lanthionizing compositions of the present invention.
A screening test to determine the applicability of a complexing agent for use in the lanthionizing compositions of the present invention was carried out.

The nature of series [2]: Generation of hydroxide ions from mucic acid sodium salt slurry and calcium hydroxide (pH measurement). It is filed as physicochemical. Conditions: 7 g mucic acid + 2.66 g sodium hydroxide slurry. As for the experimental part:
An incremental amount of calcium hydroxide was then added slowly to the slurry of mucic acid sodium salt, and the pH was measured.

A short description of the next series: Solubility. The format is physicochemical.
The nature of series [3]: Relaxing efficiency (% RE) of hair swatch after treatment, 24 hours at 90% RH. As for the experimental part:
A naturally kinky hair swatch was relaxed using a composition comprising at least one hydroxide composition comprising at least one hydroxide compound and at least one activating composition comprising at least one complexing agent according to the present invention. The relaxed hair swatch was then rinsed, shampooed, and then placed in the humidity chamber at 90% Relative Humidity (% RH) for 24 hours. The percent Relaxing Efficiency (% RE) is defined as:
Lf=length of the relaxed hair after 24 hours at 90% RH
Lt=length of the hair at the straight configuration
This mucic acid sodium salt slurry was mixed with 6 g of a 7% calcium hydroxide cream. The calcium hydroxide cream contained the following ingredients by weight, relative to the total weight of the cream:
The mixture of mucic acid sodium salt slurry and calcium hydroxide cream was applied to naturally kinky hair for 30 minutes. The treated hair was shampooed and then placed in a humidity chamber at 90% RH for 24 hours.

As for `O=C([O-])CN(CCN(CC(=O)[O-])CC(=O)[O-])CC(=O)[O-].[Na+].[Na+].[Na+].[Na+]` [Na4EDTA, tetrasodium EDTA], the “amount of Ca(OH)2 dissolved in the solution at the end of the reaction” value in series [1] (3 g VERSENE 220 (0.0066 moles) in 97 g water) came out at 0.60 g. Moreover, the Appearance entry in series [1] (0 g Ca(OH)2 added) is reported as “Clear”; in series [1] (0.20 g Ca(OH)2 added) it was “Clear”; in series [1] (0.40 g Ca(OH)2 added), “Clear”; in series [1] (0.60 g Ca(OH)2 added) it was “Clear”; in series [1] (0.65 g Ca(OH)2 added) it was “Cloudy”. In addition, the pH in series [1] (0 g Ca(OH)2 added) was found to be 11.62; in series [1] (0.20 g Ca(OH)2 added), 13.32; in series [1] (0.40 g Ca(OH)2 added) it was 13.52; in series [1] (0.60 g Ca(OH)2 added), 13.59; in series [1] (0.65 g Ca(OH)2 added), 13.63.

For `O=C(O)[C@@H](O)[C@H](O)[C@H](O)[C@@H](O)C(=O)O` [mucic acid sodium salt], the pH in series [2] (0.0 g calcium hydroxide added) is listed as 12.39; in series [2] (0.2 g calcium hydroxide added) it was 13.02; in series [2] (0.4 g calcium hydroxide added), 13.32; in series [2] (0.6 g calcium hydroxide added), 13.46; in series [2] (0.8 g calcium hydroxide added), 13.51; in series [2] (1.0 g calcium hydroxide added) it was 13.53. The pH in series [2] (1.2 g calcium hydroxide added) was determined as 13.55. Moreover, the “observation upon mixing with calcium hydroxide” value in “Solubility” (mucic acid sodium salt mixed with calcium hydroxide) is reported as “precipitation was observed”.

Consider `O=C(O)C(O)C(O)C(O)C(O)C(=O)O` (stereo not shown) [Mucic Acid, 1,2,3,4-tetrahydroxy-1,4-butane dicarboxylic acid], for which the “% RE” value in series [3] (curly hair, 6 g 7% calcium hydroxide cream, 1:0.7 molar ratio calcium hydroxide:mucic acid, 2 g water in mucic acid salt slurry) worked out at 42%; in series [3] (curly hair, 6 g 7% calcium hydroxide cream, 1:0.7 molar ratio calcium hydroxide:mucic acid, 3 g water in mucic acid salt slurry), 88%; in series [3] (curly hair, 6 g 7% calcium hydroxide cream, 1:0.7 molar ratio calcium hydroxide:mucic acid, 4 g water in mucic acid salt slurry), 95%; in series [3] (curly hair, 6 g 7% calcium hydroxide cream, 1:0.7 molar ratio calcium hydroxide:mucic acid, 5 g water in mucic acid salt slurry), 98%; in series [3] (curly hair, 6 g 7% calcium hydroxide cream, 1:0.7 molar ratio calcium hydroxide:mucic acid, 6 g water in mucic acid salt slurry) it was 99%; in series [3] (naturally kinky hair, 30 minutes, 6 g 7% Ca(OH)2 cream, 0.36 g mucic acid, 0.27 g 50% NaOH, 3 g water, molar ratio calcium hydroxide:mucic acid 1:0.3) it was 54%. Moreover, the “% RE” value in series [3] (naturally kinky hair, 30 minutes, 6 g 7% Ca(OH)2 cream, 0.48 g mucic acid, 0.37 g 50% NaOH, 3 g water, molar ratio calcium hydroxide:mucic acid 1:0.4) is 81%; in series [3] (naturally kinky hair, 30 minutes, 6 g 7% Ca(OH)2 cream, 0.60 g mucic acid, 0.46 g 50% NaOH, 3 g water, molar ratio calcium hydroxide:mucic acid 1:0.5) it was 80%; in series [3] (naturally kinky hair, 30 minutes, 6 g 7% Ca(OH)2 cream, 0.84 g mucic acid, 0.64 g 50% NaOH, 3 g water, molar ratio calcium hydroxide:mucic acid 1:0.7) it was 86%; in series [3] (naturally kinky hair, 30 minutes, 6 g 7% Ca(OH)2 cream, 1.19 g mucic acid, 0.9 g 50% NaOH, 3 g water, molar ratio calcium hydroxide:mucic acid 1:1) it was 21%. The “solubility in organic solvents” value in the series “Solubility” (most organic solvents, for example alcohols and ethers) is reported as “insoluble”. The “solubility in water (salt form)” value in the series “Solubility” (water at high pH) is reported as “about 0.7%”.
